Data published in publication PMC9612427 (Journal of the American Chemical Society, 2022).
Blank lines part the entries; values can stand above or below the compound they belong to.

What was measured:
[1] = BBB penetrance: brain and serum drug levels after single IV injection; type: in vivo, mice; details: for Kp at 60 min: mouse, brain and serum, iv, 25 mg/kg
[2] = system: MAPK signaling (phospho-MEK1/2, phospho-ERK1/2) in A375 cells; experiment: MEK1/2 and ERK1/2 phosphorylation; type: cell-based; details: for inhibition of ERK1/2 phosphorylation after 24 h: highest concentrations (10 μM)
P-glycoprotein (MDR1) = P-glycoprotein (MDR1) (Homo sapiens, UniProt P08183); experiment: MDR1-MDCK transwell assay; details: for efflux ratio (ER): 10 μM compound, 90 min, substrate when ER ≥ 2.0
Chain of P-glycoprotein (MDR1) (P08183 whole entry): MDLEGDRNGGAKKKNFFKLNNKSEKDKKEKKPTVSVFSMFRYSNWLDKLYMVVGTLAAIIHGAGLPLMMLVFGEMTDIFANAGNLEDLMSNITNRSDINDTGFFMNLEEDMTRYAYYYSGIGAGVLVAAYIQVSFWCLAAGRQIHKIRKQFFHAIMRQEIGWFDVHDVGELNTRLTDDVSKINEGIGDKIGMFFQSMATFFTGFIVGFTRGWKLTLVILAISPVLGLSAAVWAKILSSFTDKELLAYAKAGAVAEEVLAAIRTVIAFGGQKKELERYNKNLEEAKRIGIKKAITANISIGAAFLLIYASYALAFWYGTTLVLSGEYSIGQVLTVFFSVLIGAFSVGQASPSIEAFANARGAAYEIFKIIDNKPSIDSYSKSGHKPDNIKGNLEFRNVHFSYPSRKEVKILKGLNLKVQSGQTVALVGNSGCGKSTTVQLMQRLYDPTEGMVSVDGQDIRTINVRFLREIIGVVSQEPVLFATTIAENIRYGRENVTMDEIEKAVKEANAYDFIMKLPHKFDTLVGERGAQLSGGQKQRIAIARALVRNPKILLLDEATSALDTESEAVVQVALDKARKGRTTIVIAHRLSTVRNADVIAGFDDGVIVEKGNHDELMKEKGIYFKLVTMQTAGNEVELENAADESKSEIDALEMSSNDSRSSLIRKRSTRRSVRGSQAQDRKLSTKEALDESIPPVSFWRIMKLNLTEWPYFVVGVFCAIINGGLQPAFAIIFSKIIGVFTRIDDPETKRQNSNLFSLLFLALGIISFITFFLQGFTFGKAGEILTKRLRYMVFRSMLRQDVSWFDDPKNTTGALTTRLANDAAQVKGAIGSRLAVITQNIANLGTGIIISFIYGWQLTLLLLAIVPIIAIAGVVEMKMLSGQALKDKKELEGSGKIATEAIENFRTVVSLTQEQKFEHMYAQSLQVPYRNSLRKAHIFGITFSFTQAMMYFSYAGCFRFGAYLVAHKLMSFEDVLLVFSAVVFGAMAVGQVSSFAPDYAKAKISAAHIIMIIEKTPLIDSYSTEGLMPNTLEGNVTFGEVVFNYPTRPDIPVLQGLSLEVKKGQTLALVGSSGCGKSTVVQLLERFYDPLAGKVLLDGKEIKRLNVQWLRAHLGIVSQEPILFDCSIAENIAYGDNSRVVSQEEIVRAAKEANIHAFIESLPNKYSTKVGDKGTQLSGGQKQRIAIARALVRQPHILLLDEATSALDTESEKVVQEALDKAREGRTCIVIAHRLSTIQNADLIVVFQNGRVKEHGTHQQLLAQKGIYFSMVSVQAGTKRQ

P-gp [3] = experiment: P-gp in vivo assay; details: mice
[4] = system: intracranially implanted A375 melanoma cells; experiment: A375 intracranial mouse model of metastatic melanoma; type: in vivo; details: 50 mg/kg IP once a day, two cycles of 5 days, 10 doses; athymic nude mice
[5] = system: V600E BRAF tumors in the brain; details: cited from earlier work
P-gp [6] = target: P-gp (Homo sapiens, UniProt P08183); experiment: calcein-AM P-gp inhibition assay in MDR1-MDCK cells; type: cell-based
Chain of P-gp (Homo sapiens, UniProt P08183) (P08183 whole entry): as above

[7] = system: AM-38 (V600E BRAF) and U118MG, T98G, U87 (WT BRAF) glioma cell lines; experiment: cell culture cytotoxicity against glioma cell lines; type: cell-based
[8] = system: V600E BRAF melanoma cell lines; experiment: 72 h cell viability assay, panel of V600E BRAF melanoma cell lines; type: cell-based; details: read-out: IC50, panel of V600E BRAF melanoma cell lines
[9] = system: MAPK signaling in CHL-1, a WT BRAF melanoma cell line; experiment: MEK1/2 and ERK1/2 phosphorylation; type: cell-based; details: CHL-1 (WT BRAF), 1 h, identical treatment
cell lines with WT BRAF = experiment: 72 h cell viability assay, cell lines with WT BRAF; type: cell-based; details: read-out: IC50, cell lines with WT BRAF

Kp at 60 min [1]: 0.0014 to 0.0069
SMILES: CCCS(=O)(=O)Nc1ccc(F)c(C(=O)c2c[nH]c3ncc(Cl)cc23)c1F [PLX4720]
inhibition of ERK1/2 phosphorylation after 24 h [2]: diminished inhibition

efflux ratio (ER) (P-glycoprotein (MDR1); MDR1-MDCK transwell): high ERs
SMILES: Cn1cnc2c(F)c(Nc3ccc(Br)cc3F)c(C(=O)NOCCO)cc21 [binimetinib]

SMILES: COC(=O)c1cn2c3c(c(N4CCN(C)CC4)c(F)cc3c1=O)OC[C@@H]2C [compound 7]
efflux ratio (ER) (P-glycoprotein (MDR1); MDR1-MDCK transwell): 5.66

SMILES: CC(C)(C)c1nc(-c2cccc(NS(=O)(=O)c3c(F)cccc3F)c2F)c(-c2ccnc(N)n2)s1 [dabrafenib]
fold increase of brain-to-serum ratio by P-gp inhibition (elacridar) (P-gp [3]; 15 min, 2.5 mg/kg elacridar IV 30 min before 25 mg/kg compound IV): 4.3 fold
Kp at 60 min [1]: 0.0014 to 0.0069
inhibition of ERK1/2 phosphorylation after 24 h [2]: diminished inhibition
median survival [4]: 39 days
duration of intracranial response ([5]; combined with trametinib, melanoma brain metastases, clinical trials): 6.5 months

P-gp inhibition (calcein-AM fluorescence) (P-gp [6]): robust inhibition
SMILES: COc1cc2c(cc1OC)CN(CCc1ccc(NC(=O)c3cccc4c(=O)c5cccc(OC)c5[nH]c34)cc1)CC2 [elacridar]

Kp at 60 min [1]: 0.0014 to 0.0069
SMILES: COC(=O)N[C@@H](C)CNc1nccc(-c2cn(C(C)C)nc2-c2cc(Cl)cc(NS(C)(=O)=O)c2F)n1 [encorafenib]

SMILES: CCCS(=O)(=O)Nc1cc(Cl)cc(-c2nc(C(C)(C)C)sc2-c2ccnc(N)n2)c1F [everafenib]
cytotoxicity against AM-38 ([7]; AM-38, glioblastoma cell line with V600E BRAF): comparable cytotoxicity to dabrafenib
activity against glioma cell-lines with WT BRAF ([7]; U118MG, T98G, U87): no activity
potentiation of brain penetrance with elacridar (P-gp [3]; time not given): did display potentiation with elacridar
permeability (Papp) (P-glycoprotein (MDR1); MDR1-MDCK transwell, A–B and B–A directions): 4.9 to 6.4 ×10⁻⁶ cm/s
brain-to-serum ratio ([1]; mice, 60 min after single 25 mg/kg IV injection): 0.286 ng/g:ng/mL
IC50 [8]: 2 to 10 nM
inhibition of MAPK signaling [9]: not observed
inhibition of MAPK signaling (MEK1/2 and ERK1/2 phosphorylation) ([2]; 1 h, 1 μM everafenib, 10 μM everafenib-CO2H): strongly inhibited
inhibition of ERK1/2 phosphorylation after 24 h [2]: sustained
median survival [4]: 50.5 days
IC50 (cell lines with WT BRAF): > 1000 nM

efflux ratio (ER) (P-glycoprotein (MDR1); MDR1-MDCK transwell): high ERs
SMILES: COc1cc2nc(N3CCN(C(=O)c4ccco4)CC3)nc(N)c2cc1OC [prazosin]

efflux ratio (ER) (P-glycoprotein (MDR1); MDR1-MDCK transwell): high ERs
P-gp inhibition (calcein-AM fluorescence) (P-gp [6]): robust inhibition
SMILES: C=C[C@H]1C[N@@]2CC[C@H]1C[C@@H]2[C@@H](O)c1ccnc2ccc(OC)cc12 [quinidine]

Papp at 90 min, 10 μM (P-glycoprotein (MDR1); human, MDCK-MDR1): 1.2 ×10⁻⁶ cm/s
SMILES: CC(C)(C)c1ccc(C(O)CCCN2CCC(C(O)(c3ccccc3)c3ccccc3)CC2)cc1 (stereo not shown) [terfenadine]

efflux ratio (ER) (P-glycoprotein (MDR1); MDR1-MDCK transwell): high ERs
SMILES: CCCS(=O)(=O)Nc1ccc(F)c(C(=O)c2c[nH]c3ncc(-c4ccc(Cl)cc4)cc23)c1F [vemurafenib]
patients responding ([5]; pleomorphic xanthoastrocytoma patients, histology agnostic trial): four out of seven
